# Experimental data: patent US11278526B2, “Compounds and methods for treating lupus” (RECEPTOS LLC, priority 2016, dated 2022)
# How the values were obtained:
# [1] = system: inflammatory and immune response genes; assay: Kidney mRNA levels of inflammatory and immune response genes (QuantiGene Multiplex Assay); format: in vivo; settings: NZBWF1 mice; 3 mpk PO; n=5
# Protocol: (§1) As explained above, SLE is characterized by aberrant recognition of healthy “self” tissue as antigenic. The resulting immune response is characterized by inflammation. To measure SLE status, mRNA levels were measured for an array of inflammatory and immune response genes from kidneys collected at termination or week 23 (naïve) and stored in RNAlater (n=5). mRNA was quantified using QuantiGene Multiplex Assay.
# IFNAR1 = IFNAR1 expression in splenic pDC cells; format: in vivo; settings: NZBWF1 mice, at termination, after five months of treatment
# Protocol: (§2) As discussed above, IFNAR1 (Interferon alpha receptor 1) and its ligand IFNα are important modulators of lupus-associated autoimmune response in humans. Serum IFNα was measured by ELISA (eBioscience kit) at 23, 29, 36, and 42 weeks (FIG. 17). Assay sensitivity was 7.48 pg/ml (dotted line). […] However, several samples at multiple time points were below the sensitivity of the assay (data not shown), consistent with reports that the NZBWF1 model has a weak IFNα signature. To determine whether compound 148 affected IFNAR1 expression, percent surface expression and MFI expression were measured in pDC cells at termination (FIGS. 18A and 18B, respectively).
# IFN-inducible genes = assay: mRNA expression of genes responsive to type-1 interferon signaling; format: in vivo; settings: NZBWF1 mice; 3 mpk PO
# profibrotic genes = assay: Kidney mRNA levels of profibrotic genes; format: in vivo; settings: NZBWF1 mice
# Protocol: as §1
# SLE-related inflammation can lead to fibrotic scarring. mRNA levels were measured for an array of profibrotic genes. […] Expression signals of MMP10, IL-2, IL-6, and TNF were also measured, but were below LLOQ (data not shown).
# splenocytes = assay: Splenocyte counts and immunophenotyping of spleen cell subtypes; format: in vivo, mice; settings: NZBWF1 mice; for Total splenocyte counts relative to vehicle: 42 weeks; for Percent Reduction vs Vehicle: Activated CD4 + T cells / Percent Reduction vs Vehicle: CD4 + T cells / Percent Reduction vs Vehicle: CD8 + T cells / Percent Reduction vs Vehicle: CD11b + Ly6C^hi monocytes / Percent Reduction vs Vehicle: CD19 + B cells / Percent Reduction vs Vehicle: Follicular B cells / Percent Reduction vs Vehicle: Germinal Center B cells / Percent Reduction vs Vehicle: Marginal Zone B cells / Percent Reduction vs Vehicle: Marginal Zone Progenitor B cells / Percent Reduction vs Vehicle: Naive CD4 + T cells / Percent Reduction vs Vehicle: Plasma cells / Percent Reduction vs Vehicle: Tfh cells / Percent Reduction vs Vehicle: Total splenocytes / Percent Reduction vs Vehicle: Treg cells / Percent Reduction vs Vehicle: pDC: spleen
# Protocol: To determine the effects of compound 148 on inflammatory infiltrate in the spleen, spleens were weighed at 42 weeks. […] Splenocyte suspensions were then prepared. RBCs were lysed and splenocytes were counted.
# Plasmacytoid dendritic cells (pDC) express IFNAR1 (Interferon alpha receptor 1), which amplifies the proinflammatory response to type 1 interferons (e.g., IFNα) that are associated with lupus. IFNAR activity is considered to be an important modulator of signal strength and duration in pDC and subsequent activation of T and B cells in the inflammatory response. pDC counts were measured at termination.
# To determine the effects of compound 5 on inflammatory infiltrate in the spleen, spleens were weighed at 42 weeks. […] Splenocyte suspensions were prepared for all three doses. RBCs were lysed and splenocytes were counted.
# NZBWF1 mice [2] = assay: Tertiary Lymphatic Tissue (TLT) scoring in kidney histology; format: in vivo
# Description: To directly assay disease progression, left kidney histology was observed and sections were stained using H&E (left kidney fixed in 4% PFA prior to staining for infiltrating PMN, lymphocytes, and TLTs) or PAS (for analysis of glomerular glycogen and glycoproteins). No neutrophils were observed. The number of aggregates was counted per section.
# IFNα = assay: Serum IFNα by ELISA; format: in vivo; settings: NZBWF1 mice; all treatment groups 0.3, 1.0, 3.0 mg/kg PO QD; weeks 23, 29, 36, 42; assay sensitivity 7.48 pg/ml
# Protocol: as §2
# [3] = system: CD4+ T cells, CD8+ T cells, and CD19+ B cells; assay: Peripheral lymphocyte counts from whole blood by flow cytometry; format: in vivo; settings: NZBWF1 mice
# Protocol: Lymphocyte counts were measured from whole blood taken at 23, 31, and 36.5 weeks using flow cytometry. Cells were gated for CD4+ T cells, CD8+ T cells, and CD19+ B cells. […] Serum blood urea nitrogen (BUN) was also measured at termination to assess kidney function.
# NZBWF1 mice [4] = assay: Survival in NZBWF1 SLE mouse model; format: in vivo; settings: 0.3, 1.0, 3.0 mg/kg PO QD, Logrank p=0.0229, 0.0308, 0.0201
# Protocol: As in Example 2, compound 5 was tested for efficacy in the same NZB×NZW F1 (“NZBWF1”) mouse model for SLE as compound 148. Six groups of NZBWF1 mice (Jackson Laboratories, stock #100008) were used in the study and were acclimated to the research facility for 6 weeks prior to the start of the study. Weekly measurements of proteinuria (excess serum proteins present in the urine) and body weight began at 20 weeks of age. At 22 weeks of age, the mice were assigned to groups in a balanced manner in order to achieve average body weight and average proteinuria measurements across the groups. One “naive” group consisting of 10 mice was euthanized at the start of treatment and used as a source of tissue for analysis. Treatment began at 22 weeks of age.
# The five treatment groups were administered cyclophosphamide (positive control, 20 mice; introduced gradually to reduce toxicity (IP, once a week, 10 mg/kg at Weeks 22 and 23 and 50 mg/kg from Week 24 to the end of the study)), vehicle (negative control, 20 mice), or compound 5 (three groups of 20 mice), beginning at 22 weeks of age and observed over the course of 20 weeks. The three groups dosed with compound 5 received 0.3, 1.0, and 3.0 mg/kg PO QD, respectively (20 mice per dosage). Surviving animals were sacrificed at 42 weeks. […] Disease development was evaluated as disclosed in the following examples.
# [5] = 3.0 mg/kg PO QD (compound 148 study)
smiles,measurement,setting,value
"CC(C)Oc1ccc(-c2nc(-c3cccc4c3CC[C@@H]4N)no2)cc1C#N [compound 148, (S)-5-(3-(1-amino-2,3-dihydro-1H-inden-4-yl)-1,2,4-oxadiazol-5-yl)-2-isopropoxy-benzonitrile]",Kidney mRNA level of CCL5 relative to control,[1],decreased levels
same,Kidney mRNA level of CXCL9 relative to control,[1],decreased levels
same,Kidney mRNA level of CXCL10 relative to control,[1],decreased levels
same,Kidney mRNA level of IL-1β relative to control,[1],decreased levels
same,Kidney mRNA level of IL-10 relative to control,[1],decreased levels
same,Kidney mRNA level of TNFSF13b/BAFF relative to control,[1],decreased levels
same,MFI of IFNAR1 expression in pDC cells,IFNAR1,very little difference between the groups
same,Percent surface expression of IFNAR1 in pDC cells,IFNAR1,very little difference between the groups
same,Expression levels of IFN-inducible genes (mRNA),IFN-inducible genes,no significant effect
same,mRNA level of Cdcd88a/Girdin relative to control,profibrotic genes; 3 mpk PO,decreased levels
same,mRNA level of LOXL1 relative to control,profibrotic genes; 3 mpk PO,decreased levels
same,mRNA level of Lipocalin 2 relative to control,profibrotic genes; 3 mpk PO,decreased levels
same,mRNA level of TGFβ2 relative to control,profibrotic genes; 3 mpk PO,decreased levels
same,mRNA level of TIMP1 relative to control,profibrotic genes; 3 mpk PO,decreased levels
same,mRNA level of Transgelin relative to control,profibrotic genes; 3 mpk PO,decreased levels
same,IFGBP2 mRNA levels,profibrotic genes; following administration of compound 148,appeared to increase somewhat
same,Total splenocyte counts relative to vehicle,"splenocytes; all groups 0.3, 1.0, 3.0 mg/kg PO QD (compound 148 study)",reduced
same,Decrease of splenic pDC counts relative to vehicle,"splenocytes; at termination, 3.0 mg/kg PO QD (compound 148 study)",62%
same,Decrease in splenic CD4+ T cell population,splenocytes; [5],75%
same,Decrease in splenic Follicular (FO) B cells,splenocytes; [5],79%
same,Reduction in splenic CD8+ T cell population,splenocytes; [5],62%
same,Reduction in splenic CD19+ B cell population,splenocytes; [5],67%
same,Reduction in splenic Germinal Center (GC) B cell population,splenocytes; [5],51%
same,Reduction in splenic Marginal Zone (MZ) B cell population,splenocytes; [5],61%
same,Reduction in splenic activated CD4+ T cell population,splenocytes; [5],75%
same,Reduction in splenic naïve CD4+ T cells,splenocytes; [5],81%
same,Reduction in splenic plasma cell population,splenocytes; [5],30%
same,Kidney TLT scores compared to naïve mice,NZBWF1 mice [2]; 1.0 mg/kg or 3.0 mg/kg PO QD,TLT scores similar to naïve mice
same,Kidney TLT scores relative to vehicle,"NZBWF1 mice [2]; 0.3, 1.0, 3.0 mg/kg PO QD, p<0.05, lesser degree than cyclophosphamide",significantly reduced TLT scores relative to vehicle
same,Serum IFNα levels compared to vehicle,IFNα,lower serum IFNα levels compared to vehicle
same,Reduction of overall lymphocyte counts relative to vehicle,"[3]; whole blood at 23, 31 and 36.5 weeks, all three doses (0.3, 1.0, 3.0 mg/kg PO QD), p<0.05",> 90%
same,CD4+ T cell and CD8+ T cell counts relative to cyclophosphamide,"[3]; whole blood, flow cytometry",Significant reductions
"CC(C)Oc1ccc(-c2nc(-c3cccc4c3CC[C@@H]4NCCO)no2)cc1C#N [compound 5, (S)-5-(3-(1-(2-hydroxyethylamino)-2,3-dihydro-1H-inden-4-yl)-1,2,4-oxadiazol-5-yl)-2-isopropoxy benzonitrile]",Survival compared to vehicle,NZBWF1 mice [4],improved survival compared to vehicle treated animals
same,Total splenocyte counts relative to vehicle,"splenocytes; all groups 0.3, 1.0, 3.0 mg/kg PO QD (compound 5 study)",reduced
same,Percent Reduction vs Vehicle: Activated CD4 + T cells,splenocytes; 0.3 mg/kg PO QD,46%
same,Percent Reduction vs Vehicle: CD4 + T cells,splenocytes; 0.3 mg/kg PO QD,51%
same,Percent Reduction vs Vehicle: CD8 + T cells,splenocytes; 0.3 mg/kg PO QD,46%
same,Percent Reduction vs Vehicle: CD11b + Ly6C^hi monocytes,splenocytes; 0.3 mg/kg PO QD,−17%
same,Percent Reduction vs Vehicle: CD19 + B cells,splenocytes; 0.3 mg/kg PO QD,43%
same,Percent Reduction vs Vehicle: Follicular B cells,splenocytes; 0.3 mg/kg PO QD,43%
same,Percent Reduction vs Vehicle: Germinal Center B cells,splenocytes; 0.3 mg/kg PO QD,46%
same,Percent Reduction vs Vehicle: Marginal Zone B cells,splenocytes; 0.3 mg/kg PO QD,20%
same,Percent Reduction vs Vehicle: Marginal Zone Progenitor B cells,splenocytes; 0.3 mg/kg PO QD,75%
same,Percent Reduction vs Vehicle: Naive CD4 + T cells,splenocytes; 0.3 mg/kg PO QD,73%
same,Percent Reduction vs Vehicle: Plasma cells,splenocytes; 0.3 mg/kg PO QD,50%
same,Percent Reduction vs Vehicle: Tfh cells,splenocytes; 0.3 mg/kg PO QD,35%
same,Percent Reduction vs Vehicle: Total splenocytes,splenocytes; 0.3 mg/kg PO QD,35%
same,Percent Reduction vs Vehicle: Treg cells,splenocytes; 0.3 mg/kg PO QD,37%
same,Percent Reduction vs Vehicle: pDC,splenocytes; 0.3 mg/kg PO QD,49%
same,Percent Reduction vs Vehicle: Activated CD4 + T cells,splenocytes; 1.0 mg/kg PO QD,72%
same,Percent Reduction vs Vehicle: CD4 + T cells,splenocytes; 1.0 mg/kg PO QD,75%
same,Percent Reduction vs Vehicle: CD8 + T cells,splenocytes; 1.0 mg/kg PO QD,77%
same,Percent Reduction vs Vehicle: CD11b + Ly6C^hi monocytes,splenocytes; 1.0 mg/kg PO QD,34%
same,Percent Reduction vs Vehicle: CD19 + B cells,splenocytes; 1.0 mg/kg PO QD,69%
same,Percent Reduction vs Vehicle: Follicular B cells,splenocytes; 1.0 mg/kg PO QD,66%
same,Percent Reduction vs Vehicle: Germinal Center B cells,splenocytes; 1.0 mg/kg PO QD,57%
same,Percent Reduction vs Vehicle: Marginal Zone B cells,splenocytes; 1.0 mg/kg PO QD,63%
same,Percent Reduction vs Vehicle: Marginal Zone Progenitor B cells,splenocytes; 1.0 mg/kg PO QD,88%
same,Percent Reduction vs Vehicle: Naive CD4 + T cells,splenocytes; 1.0 mg/kg PO QD,91%
same,Percent Reduction vs Vehicle: Plasma cells,splenocytes; 1.0 mg/kg PO QD,66%
same,Percent Reduction vs Vehicle: Tfh cells,splenocytes; 1.0 mg/kg PO QD,51%
same,Percent Reduction vs Vehicle: Total splenocytes,splenocytes; 1.0 mg/kg PO QD,50%
same,Percent Reduction vs Vehicle: Treg cells,splenocytes; 1.0 mg/kg PO QD,58%
same,Percent Reduction vs Vehicle: pDC,splenocytes; 1.0 mg/kg PO QD,72%
same,Percent Reduction vs Vehicle: Activated CD4 + T cells,splenocytes; 3.0 mg/kg PO QD,80%
same,Percent Reduction vs Vehicle: CD4 + T cells,splenocytes; 3.0 mg/kg PO QD,81%
same,Percent Reduction vs Vehicle: CD8 + T cells,splenocytes; 3.0 mg/kg PO QD,75%
same,Percent Reduction vs Vehicle: CD11b + Ly6C^hi monocytes,splenocytes; 3.0 mg/kg PO QD,28%
same,Percent Reduction vs Vehicle: CD19 + B cells,splenocytes; 3.0 mg/kg PO QD,74%
same,Percent Reduction vs Vehicle: Follicular B cells,splenocytes; 3.0 mg/kg PO QD,72%
same,Percent Reduction vs Vehicle: Germinal Center B cells,splenocytes; 3.0 mg/kg PO QD,64%
same,Percent Reduction vs Vehicle: Marginal Zone B cells,splenocytes; 3.0 mg/kg PO QD,54%
same,Percent Reduction vs Vehicle: Marginal Zone Progenitor B cells,splenocytes; 3.0 mg/kg PO QD,85%
same,Percent Reduction vs Vehicle: Naive CD4 + T cells,splenocytes; 3.0 mg/kg PO QD,88%
same,Percent Reduction vs Vehicle: Plasma cells,splenocytes; 3.0 mg/kg PO QD,70%
same,Percent Reduction vs Vehicle: Tfh cells,splenocytes; 3.0 mg/kg PO QD,68%
same,Percent Reduction vs Vehicle: Total splenocytes,splenocytes; 3.0 mg/kg PO QD,60%
same,Percent Reduction vs Vehicle: Treg cells,splenocytes; 3.0 mg/kg PO QD,81%
same,Percent Reduction vs Vehicle: pDC,splenocytes; 3.0 mg/kg PO QD,68%
